In patent publication US20240270762A1, “PENICILLIN-BINDING PROTEIN INHIBITORS” (priority 2021, published 2024):
In brackets after ≈: the same amount, converted by molar mass.

Assays:
[1] = target: T1, PBP3 from Pseudomonas aeruginosa (PAO1) (Pseudomonas aeruginosa, UniProt G3XD46); experiment: Bocillin-FL fluorescence polarization competition binding, P. aeruginosa PBP3; conditions: Binding affinity to P. aeruginosa PBP3; fluorescence polarization competition binding assay using Bocillin-FL; read-out: P. aeruginosa PBP3 Potency
T1 construct: made in house
T1 sequence (G3XD46 whole entry): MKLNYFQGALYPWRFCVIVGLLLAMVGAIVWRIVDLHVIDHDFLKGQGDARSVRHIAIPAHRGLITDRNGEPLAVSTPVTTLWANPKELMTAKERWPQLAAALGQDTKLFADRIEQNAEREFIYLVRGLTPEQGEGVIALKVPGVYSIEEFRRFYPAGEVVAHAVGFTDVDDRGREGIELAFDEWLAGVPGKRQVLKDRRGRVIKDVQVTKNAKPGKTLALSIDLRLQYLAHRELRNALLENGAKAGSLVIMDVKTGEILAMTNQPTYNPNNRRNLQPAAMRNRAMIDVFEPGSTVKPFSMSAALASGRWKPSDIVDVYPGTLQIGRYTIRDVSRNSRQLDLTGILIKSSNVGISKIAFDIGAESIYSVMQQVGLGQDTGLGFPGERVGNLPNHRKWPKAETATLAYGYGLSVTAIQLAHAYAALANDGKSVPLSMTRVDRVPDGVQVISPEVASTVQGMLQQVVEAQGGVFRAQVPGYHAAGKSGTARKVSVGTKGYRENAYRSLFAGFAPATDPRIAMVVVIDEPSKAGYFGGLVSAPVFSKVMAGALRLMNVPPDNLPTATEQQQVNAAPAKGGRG
Procedure, shortened: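 Purified PBPs pre-incubated with inhibitor (E. coli PBP3 1.5 μM, 30 min; P. aeruginosa PBP3 0.75 μM, A. baumannii PBP1a 1 μM and PBP3 0.2 μM, 15 min), then Bocillin-FL 0.1 μM (0.05 μM for PBP1a) added; FP read up to 60 min. EC50 = concentration halving bound Bocillin-FL.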

P. aeruginosa ATCC 27853 = experiment: microbe, parasite or virus in culture; format: cell-based; conditions: Pseudomonas aeruginosa, ATCC27853, read-out: Minimum inhibitory concentration, P. aeruginosa ATCC 27853
P. aeruginosa CDC-0054 = experiment: microbe, parasite or virus in culture; format: cell-based; conditions: Pseudomonas aeruginosa, CDC0054, read-out: Minimum inhibitory concentration, P. aeruginosa CDC-0054
P. aeruginosa CDC-0090 = experiment: microbe, parasite or virus in culture; format: cell-based; conditions: Pseudomonas aeruginosa, CDC0090, read-out: Minimum inhibitory concentration, P. aeruginosa CDC-0090
A. baumannii CDC-0036 = experiment: microbe, parasite or virus in culture; format: cell-based; conditions: Acinetobacter baumannii, CDC0036, read-out: MIC, A. baumannii CDC-0036
A. baumannii CDC-0083 = experiment: microbe, parasite or virus in culture; format: cell-based; conditions: Acinetobacter baumannii, CDC0083, read-out: MIC, A. baumannii CDC-0083
[2] = system: B. humptydooensis ATCC BAA-2767; experiment: microbe, parasite or virus in culture; format: cell-based; conditions: Burkholderia humptydooensis, ATCCBAA2767, read-out: Minimum inhibitory concentration (MIC), B. humptydooensis ATCC BAA-2767
P. aeruginosa CDC-0110 = experiment: microbe, parasite or virus in culture; format: cell-based; conditions: Pseudomonas aeruginosa, CDC0110, read-out: Minimum inhibitory concentration, P. aeruginosa CDC-0110
[3] = system: N. gonorrhoeae ATCC 49226; experiment: Liquid broth MIC in Fastidious broth; conditions: Neisseria gonorrhoeae, ATCC49226, read-out: Minimum Inhibitory Concentration, ATCC 49226
N. gonorrhoeae FA1090 = experiment: Liquid broth MIC in Fastidious broth; conditions: Neisseria gonorrhoeae, FA1090, read-out: Minimum Inhibitory Concentration, FA 1090
N. gonorrhoeae WHO G = experiment: Liquid broth MIC in Fastidious broth; conditions: Neisseria gonorrhoeae, read-out: Minimum Inhibitory Concentration, WHO G
N. gonorrhoeae WHO M = experiment: Liquid broth MIC in Fastidious broth; conditions: Neisseria gonorrhoeae, read-out: Minimum Inhibitory Concentration, WHO M
N. gonorrhoeae WHO X = experiment: Liquid broth MIC in Fastidious broth; conditions: Neisseria gonorrhoeae, read-out: Minimum Inhibitory Concentration, WHO X

O=C(NCCCN1CCN(C(=O)N[C@H](C(=O)N[C@H]2Cc3ccc(F)c(C(=O)O)c3OB2O)c2cc(F)c(O)c(O)c2Cl)C1=O)c1ccccc1 [Example 252, (R)-3-((S)-2-(3-(3-benzamidopropyl)-2-oxoimidazolidine-1-carboxamido)-2-(2-chloro-5-fluoro-3,4-dihydroxyphenyl)acetamido)-7-fluoro-2-hydroxy-3,4-dihydro-2H-benzo[e][1,2]oxaborinine-8-carboxylic acid]
IC50 [1]: > 250 µM | MIC (P. aeruginosa ATCC 27853): > 128 µg/mL | MIC (P. aeruginosa CDC-0054): > 128 µg/mL | MIC (P. aeruginosa CDC-0090): > 128 µg/mL | MIC (A. baumannii CDC-0036): > 128 µg/mL | MIC (A. baumannii CDC-0083): > 128 µg/mL | MIC [2]: > 128 µg/mL | MIC (P. aeruginosa CDC-0110): > 128 µg/mL | MIC [3]: > 64 µg/mL | MIC (N. gonorrhoeae FA1090): > 64 µg/mL | MIC (N. gonorrhoeae WHO G): > 64 µg/mL | MIC (N. gonorrhoeae WHO M): > 64 µg/mL | MIC (N. gonorrhoeae WHO X): > 64 µg/mL

O=C(NCCCN1CCN(C(=O)N[C@H](C(=O)N[C@H]2Cc3ccc(F)c(C(=O)O)c3OB2O)c2cc(F)c(O)c(O)c2Cl)C1=O)c1cccc(O)c1 [Example 254, (R)-3-((S)-2-(2-chloro-5-fluoro-3,4-dihydroxyphenyl)-2-(3-(3-(3-hydroxybenzamido)propyl)-2-oxoimidazolidine-1-carboxamido)acetamido)-7-fluoro-2-hydroxy-3,4-dihydro-2H-benzo[e][1,2]oxaborinine-8-carboxylic acid]
IC50 [1]: 50 to 250 µM | MIC (P. aeruginosa ATCC 27853): > 128 µg/mL | MIC (P. aeruginosa CDC-0054): > 128 µg/mL | MIC (P. aeruginosa CDC-0090): > 128 µg/mL | MIC (A. baumannii CDC-0036): > 128 µg/mL | MIC (A. baumannii CDC-0083): > 128 µg/mL | MIC [2]: > 128 µg/mL | MIC (P. aeruginosa CDC-0110): > 128 µg/mL | MIC [3]: > 64 µg/mL | MIC (N. gonorrhoeae FA1090): > 64 µg/mL | MIC (N. gonorrhoeae WHO G): > 64 µg/mL | MIC (N. gonorrhoeae WHO M): > 64 µg/mL | MIC (N. gonorrhoeae WHO X): > 64 µg/mL

O=C(NCCCN1CCN(C(=O)N[C@@H](C(=O)N[C@H]2Cc3ccc(F)c(C(=O)O)c3OB2O)c2cc(F)c(O)c(O)c2Cl)C1=O)c1cccc(O)c1 [Example 255, (R)-3-((R)-2-(2-chloro-5-fluoro-3,4-dihydroxyphenyl)-2-(3-(3-(3-hydroxybenzamido)propyl)-2-oxoimidazolidine-1-carboxamido)acetamido)-7-fluoro-2-hydroxy-3,4-dihydro-2H-benzo[e][1,2]oxaborinine-8-carboxylic acid]
IC50 [1]: < 10 µM | MIC (P. aeruginosa ATCC 27853): < 1 µg/mL | MIC (P. aeruginosa CDC-0054): < 1 µg/mL | MIC (P. aeruginosa CDC-0090): < 1 µg/mL | MIC (A. baumannii CDC-0036): < 1 µg/mL | MIC (A. baumannii CDC-0083): < 1 µg/mL | MIC [2]: < 1 µg/mL | MIC (P. aeruginosa CDC-0110): < 1 µg/mL | MIC [3]: 16 to 32 µg/mL (≈ 21.9 to 43.7 µM) | MIC (N. gonorrhoeae FA1090): 1 to 2 µg/mL (≈ 1.37 to 2.73 µM) | MIC (N. gonorrhoeae WHO G): 4 to 8 µg/mL (≈ 5.47 to 10.9 µM) | MIC (N. gonorrhoeae WHO M): 4 to 8 µg/mL (≈ 5.47 to 10.9 µM) | MIC (N. gonorrhoeae WHO X): > 64 µg/mL

O=C(NCCCN1CCN(C(=O)NC(C(=O)N[C@H]2Cc3ccc(F)c(C(=O)O)c3OB2O)c2cc(F)c(O)c(O)c2Cl)C1=O)c1ccncc1 (stereo partly drawn) [Example 256, (3R)-3-(2-(2-chloro-5-fluoro-3,4-dihydroxyphenyl)-2-(3-(3-(isonicotinamido)propyl)-2-oxoimidazolidine-1-carboxamido)acetamido)-7-fluoro-2-hydroxy-3,4-dihydro-2H-benzo[e][1,2]oxaborinine-8-carboxylic acid]
IC50 [1]: < 10 µM | MIC (P. aeruginosa ATCC 27853): 2 to 4 µg/mL (≈ 2.79 to 5.58 µM) | MIC (P. aeruginosa CDC-0054): 2 to 4 µg/mL (≈ 2.79 to 5.58 µM) | MIC (P. aeruginosa CDC-0090): 2 to 4 µg/mL (≈ 2.79 to 5.58 µM) | MIC (A. baumannii CDC-0036): 2 to 4 µg/mL (≈ 2.79 to 5.58 µM) | MIC (A. baumannii CDC-0083): < 1 µg/mL | MIC [2]: < 1 µg/mL | MIC (P. aeruginosa CDC-0110): 2 to 4 µg/mL (≈ 2.79 to 5.58 µM) | MIC [3]: 16 to 32 µg/mL (≈ 22.3 to 44.6 µM) | MIC (N. gonorrhoeae FA1090): 4 to 8 µg/mL (≈ 5.58 to 11.2 µM) | MIC (N. gonorrhoeae WHO G): 16 to 32 µg/mL (≈ 22.3 to 44.6 µM) | MIC (N. gonorrhoeae WHO M): 16 to 32 µg/mL (≈ 22.3 to 44.6 µM) | MIC (N. gonorrhoeae WHO X): > 64 µg/mL

O=C(NCCCN1CCN(C(=O)NC(C(=O)N[C@H]2Cc3ccc(F)c(C(=O)O)c3OB2O)c2cc(F)c(O)c(O)c2Cl)C1=O)c1nccs1 (stereo partly drawn) [Example 257, (3R)-3-(2-(2-chloro-5-fluoro-3,4-dihydroxyphenyl)-2-(2-oxo-3-(3-(thiazole-2-carboxamido)propyl)imidazolidine-1-carboxamido)acetamido)-7-fluoro-2-hydroxy-3,4-dihydro-2H-benzo[e][1,2]oxaborinine-8-carboxylic acid]
IC50 [1]: < 10 µM | MIC (P. aeruginosa ATCC 27853): 2 to 4 µg/mL (≈ 2.77 to 5.53 µM) | MIC (P. aeruginosa CDC-0054): 2 to 4 µg/mL (≈ 2.77 to 5.53 µM) | MIC (P. aeruginosa CDC-0090): 2 to 4 µg/mL (≈ 2.77 to 5.53 µM) | MIC (A. baumannii CDC-0036): 2 to 4 µg/mL (≈ 2.77 to 5.53 µM) | MIC (A. baumannii CDC-0083): < 1 µg/mL | MIC [2]: 2 to 4 µg/mL (≈ 2.77 to 5.53 µM) | MIC (P. aeruginosa CDC-0110): 2 to 4 µg/mL (≈ 2.77 to 5.53 µM) | MIC [3]: > 64 µg/mL | MIC (N. gonorrhoeae FA1090): 4 to 8 µg/mL (≈ 5.53 to 11.1 µM) | MIC (N. gonorrhoeae WHO G): > 64 µg/mL | MIC (N. gonorrhoeae WHO M): 16 to 32 µg/mL (≈ 22.1 to 44.3 µM) | MIC (N. gonorrhoeae WHO X): > 64 µg/mL
